In assay [1] the test system is human MSCs (mixed with IM-9 and U937 cells). Put plainly: Capture of MSCs from a mixed cell population with peptide on CELLECTION magnetic beads. In kind it is cell-based. The conditions noted are these: starting mixture 38% IM9, 56% U937, 4% MSC. The source says:
In this experiment, biotinylated cell binding peptide, SEQ ID NO: 16, was attached to CELLECTION magnetic beads. The CELLECTION beads have streptavidin coupled to a magnetic particle through a DNA linker. Three different cell types, human MSCs, IM-9, and U937 cells were differentially labeled with […] dye and mixed in a ratio such that the MSCs represented ˜4% of the starting cell mixture (the percentage of each cell type in the starting mixture was 38% IM9, 56% U937, and 4% MSC). The cell binding peptide, SEQ ID NO: 16, was biotinylated as described herein at Example 2, as was a general cell binding peptide for use as a control peptide in the experiment. Magnetic particles with no peptide attached, as well as magnetic beads having attached either the cell binding peptide, SEQ ID NO: 16, or the control peptide were tested for their ability to capture human MSCs. The starting cell mixture was incubated with magnetic beads having either attached peptide or no peptide, the beads were washed, and the captured cells were released from the beads by DNase treatment. The cells were measured by flow cytometry histograms shown in 18A-18C. The magnetic beads without peptide captured little or no cells (FIG. 18B). The magnetic beads with attached cell binding peptide SEQ ID NO: 16 captured a cell population that was 96% MSCs (FIG. 18C).

The test system of assay [2] is endothelial colony forming cells (ECFCs). As to the kind of experiment: Biotinylated peptide binding to endothelial and other cells, flow cytometry. Also on record: species or system human. The conditions noted are these: biotinylated peptide 10 μM, 30 min at 4° C. The protocol: (§1) The synthetic biotinylated binding peptide SEQ ID NO: 4 was further examined for its ability to bind endothelial cells compared to other cell types (see FIG. 16). […] ECFCs are clonally expanded cells isolated from human umbilical cord blood, and are considered highly proliferative endothelial progenitor cells (EPCs) based on their clonogenic and proliferative potential. In another experiment, binding peptide SEQ ID NO: 4 was assayed for its ability to selectively isolate endothelial cells versus smooth muscle cells in the presence of whole blood. HUVECs or UASMCs were incubated in the presence of medium containing 20% whole blood and binding peptide SEQ ID NO: 4-conjugated magnetic beads (via biotin-SA) for 30 min. The solutions containing the bead-peptide-cell complexes were then passed through a […] LS column in a magnetic field. The column was washed, and the remaining peptide-bound cells were then released from the magnetic field and counted.
(In general: In flow cytometry, cells or beads pass a laser one at a time.)

Assay [3] relates to dermal fibroblasts. As to the kind of experiment: Biotinylated peptide cell binding specificity, flow cytometry with Neutravidin-PE. Also on record: species or system human. The conditions noted are these: 25 μM solution, 30 min at 4° C. The text has this: (§2) The synthetic biotinylated cell binding peptide SEQ ID NO: 4 was examined for its ability to specifically bind MSCs compared to a number of other cells types including adipose-derived mesenchymal stem cells (ASCs), dermal fibroblasts, rodent MSCs, red blood cells, monocytes, lymphocytes and granulocytes. The cell binding peptide was biotinylated as described herein at Example 2. Cultured cells of each type were either purchased (ASCs and dermal fibroblasts) or isolated from rodent bone marrow (rodent MSCs) or human blood. Cells were first harvested and resuspended at 10^6/mL in PBS+2% fetal bovine serum (FBS). An aliquot of cells (50 μL) was incubated in 50 μL of peptide solution (25 μM in PBS+FBS) for 30 min at 4° C. Cells were then washed twice in PBS+FBS with 300×g centrifugation for 5 min between washes. Fluorescently-tagged neutravidin (Neutravidin-PE from INVITROGEN) was then added to the cells to label biotinylated peptide bound to cells. Neutravidin-PE was diluted 1:250 from stock and applied at 50 μL to cells. Cells were then washed in PBS+FBS, and acquired on a BD […]. Peptide reactivity was then measured as percent positivity relative to Neutravidin-PE staining without the addition of biotinylated peptide.

The subject of assay [4] is human umbilical vein endothelial cells (HUVECs). Put plainly: Biotinylated peptide binding to endothelial and other cells, flow cytometry. The conditions noted are these: biotinylated peptide 10 μM, 30 min at 4° C. The procedure: as §1
Assay [5] has as its system umbilical artery smooth muscle cells (UASMCs). Described as above. The conditions noted are these: biotinylated peptide 10 μM, 30 min at 4° C. The procedure:
as §1

In assay [6] the test system is human ASCs (adipose-derived mesenchymal stem cells). As to the kind of experiment: Biotinylated peptide cell binding specificity, flow cytometry with Neutravidin-PE. The conditions noted are these: 25 μM solution, 30 min at 4° C.
Text: as §2

In assay [7] the test system is human MSCs. The assay is described as above. The conditions noted are these: 25 μM solution, 30 min at 4° C.
Text: as §2

The target in assay [8] is T1, TGF-β3 (Homo sapiens, UniProt P10600).
T1 sequence (P10600 301-412 limits assumed): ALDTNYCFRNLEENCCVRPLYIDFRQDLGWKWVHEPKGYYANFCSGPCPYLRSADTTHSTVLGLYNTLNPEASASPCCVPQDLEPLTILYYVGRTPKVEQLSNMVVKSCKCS
Put plainly: ELISA-type binding of growth factor to biotinylated peptide on streptavidin plates. The conditions noted are these: peptide 0.2 μM on streptavidin plate, TGF-β3 1 μM-1 nM. The text has this:
Peptides that bind TGF-β3 were identified by phage display biopanning. Recombinant human TGF-β3 (rhTGF-β3) was biotinylated and immobilized on streptavidin-coated microtiter plates. Twenty-two different phage display libraries were used for the selection. Enrichment of target-binding phage in the selection was monitored using an ELISA-type assay with an HRP-conjugated anti-M13 antibody. After enrichment for TGF-β3 specific phage, individual phage were picked, propagated on E. coli, and tested for binding to TGF-β3. Over 20 individual phage were isolated that bound TGF-β3. […] The TGF-β3-binding peptide sequences were then synthesized using standard solid-phase peptide synthesis techniques on a Symphony Peptide Synthesizer (PROTEIN TECHNOLOGIES, Tucson, Ariz.) using standard Fmoc chemistry as described herein above at Example 2. Biotinylated peptides were generated similarly, with a GSSGK(biotin) sequence added to the C-terminus of the peptide.
The TGF-β binding peptides with the biotin moiety on their C-terminus were tested for their ability to bind the target growth factor using the following methods. Streptavidin-coated plates were first prepared by generating a 1:100 dilution of streptavidin (1 mg/mL) in 0.1M NaHCO3 buffer. […] To reveal immunoreactivity, 100 μL of para-nitrophenyl phosphate solution was added to each well, and optical density was recorded on a spectrophotometer.
In general terms: In an ELISA, binding on a coated surface is turned into a signal by an enzyme label.

Ends that are not written are not given here.

The text below walks through data of US20110117169A1, “METHODS AND COMPOSITIONS FOR CAPTURE OF CELLS” (AFFINERGY, INC., priority 2009, published 2011).

On to “SSFRFGPLGTWNYPSTDNAE (also: biotin, site not given here) [SEQ ID NO: 16, tested biotinylated]”, for which the “MSCs in captured cell population” value in assay [1] was determined as 96%.
“SSFWDVCQGDGTCYGGGSR (SSFWDVCQGDGTCYGGGSRGSSG-{K(biotin)}; cysteine pairing not given here) [SEQ ID NO: 4, tested biotinylated (C-terminal GSSGK(biotin) or other spacer)]”: in assay [2], the “cross-reactivity with ECFCs” value is “cross-reacted strongly”. In addition, in assay [3], the “binding to dermal fibroblasts (percent positivity relative to Neutravidin-PE staining)” value is on record as “high binding”. In addition, the “cross-reactivity with HUVECs” value in assay [4] is listed as “cross-reacted strongly”. Also, in assay [5], the “cross-reactivity with UASMCs” value is reported as “weakly”. Besides, the “binding to human ASCs (percent positivity relative to Neutravidin-PE staining)” value in assay [6] is recorded as “high binding”. Further, in assay [7], the “binding to human MSCs (percent positivity relative to Neutravidin-PE staining)” value was “high binding”.
As for “SSCNNLSVCTFDKIIERNRSSR (SSCNNLSVCTFDKIIERNRSSRGSSG-{K(biotin)}; cysteine pairing not given here) [SEQ ID NO: 21, tested with C-terminal GSSGK(biotin)]”, the “binding affinity for TGF-β3” value in assay [8] is recorded as “best binding affinity”.
